Assay results published in patent publication US20240245675A1, “PROTEIN SECRETION INHIBITORS” (Gate Bioscience, Inc., priority 2021, published 2024).
pIC50: −log10 of the molar value.

Each compound was assayed against PDCD1 Construct (signal peptide + 10 amino acids of Programmed Cell Death Receptor 1 fused to HaloTag-HiBit) (Homo sapiens, UniProt P61619) (assay: HiBit assay, secretion of SP-HaloTag-HiBit fusion protein, PDCD1 construct). Details: T-REx-293 cells, doxycycline-induced, Nano-Glo HiBiT Extracellular Detection.
Format: cell-based

Chain of PDCD1 Construct (signal peptide + 10 amino acids of Programmed Cell Death Receptor 1 fused to HaloTag-HiBit) (P61619 whole entry, the tested form may be a part): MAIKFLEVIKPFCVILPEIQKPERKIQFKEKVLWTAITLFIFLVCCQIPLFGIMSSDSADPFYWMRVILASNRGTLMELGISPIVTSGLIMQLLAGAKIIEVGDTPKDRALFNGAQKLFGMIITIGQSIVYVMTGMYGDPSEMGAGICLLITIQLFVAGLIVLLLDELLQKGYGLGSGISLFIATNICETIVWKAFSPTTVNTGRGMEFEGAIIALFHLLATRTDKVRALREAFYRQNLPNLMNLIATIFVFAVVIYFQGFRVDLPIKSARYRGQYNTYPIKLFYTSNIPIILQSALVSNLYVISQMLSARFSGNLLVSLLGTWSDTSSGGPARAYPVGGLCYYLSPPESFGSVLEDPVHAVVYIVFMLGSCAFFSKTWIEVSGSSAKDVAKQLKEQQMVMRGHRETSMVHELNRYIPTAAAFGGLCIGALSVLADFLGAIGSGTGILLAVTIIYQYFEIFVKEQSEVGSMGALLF

`c1ccc(N2CCC[C@@H]2c2csc(Nc3ncccc3OCc3ccncc3)n2)cc1` [Compound 8, (R)-4-(1-phenylpyrrolidin-2-yl)-N-(3-(pyridin-4-ylmethoxy)pyridin-2-yl)thiazol-2-amine] and `CC(C)OC(C)(C)c1csc(Nc2nccc3ccn(Cc4ccncc4)c23)n1` [Compound 25, 4-(2-isopropoxypropan-2-yl)-N-(1-(pyridin-4-ylmethyl)-1H-pyrrolo[2,3-c]pyridin-7-yl)thiazol-2-amine] fall in the same range of pIC50: 5.00 to 5.30 for the first, 5.00 to 5.30 for the second.

`CC(C)OC(C)(C)c1csc(NC(=O)c2ccnn2CCc2ccncc2)n1` [Compound 24, N-(4-(2-isopropoxypropan-2-yl)thiazol-2-yl)-1-(2-(pyridin-4-yl)ethyl)-1H-pyrazole-5-carboxamide] and `CC(C)OC(C)(C)c1csc(NC(=O)c2nccn2CCc2ccncc2)n1` [Compound 44] cannot be ordered by pIC50: less than 4.52 for the first, less than 4.52 for the second.

`O=C(Nc1nc(-c2ccccc2)ns1)c1cccn1Cc1ccncc1` [Compound 37] and `CC(C)(C)c1nsc(NC(=O)c2cccn2Cc2ccncc2)n1` [Compound 50] cannot be ordered by pIC50: greater than 5.30 for the first, greater than 5.30 for the second.

Compared with `Cc1cccc(Nc2nc(-c3ccc(-c4cccnc4)cc3)cs2)n1` [Compound 38], `O=C(Nc1nc(/C=C/c2ccccc2)ns1)c1cc(F)cn1Cc1ccncc1` [Compound 49, (E)-4-fluoro-1-(pyridin-4-ylmethyl)-N-(3-styryl-1,2,4-thiadiazol-5-yl)-1H-pyrrole-2-carboxamide] is higher in pIC50: less than 4.52 for the first, greater than 5.30 for the second. The second is the more potent here.

First: CC(C)(C)C1CNC(NC(=O)c2cccn2Cc2ccncc2)=N1 (centres unmarked) [Compound 43]
Second: CN1CCN(c2nsc(NC(=O)c3cc(F)cn3Cc3ccncc3)n2)CC1 [Compound 48, 4-fluoro-N-(3-(4-methylpiperazin-1-yl)-1,2,4-thiadiazol-5-yl)-1-(pyridin-4-ylmethyl)-1H-pyrrole-2-carboxamide]
The pIC50 of the first is higher: greater than 5.30 for the first, less than 4.52 for the second. The first is the more potent here.

The compounds below were run against PRP Construct (signal peptide + 10 amino acids of Prion protein fused to HaloTag-HiBit) (Homo sapiens, UniProt P61619) (assay: cell-based). Details: not given.
Chain of PRP Construct (signal peptide + 10 amino acids of Prion protein fused to HaloTag-HiBit) (P61619 whole entry, looked up, the tested form may be a part): as the sequence (P61619 whole entry, the tested form may be a part) above

`O=C(Nc1nc([C@H]2CCCN2c2ccccc2)cs1)OCCc1ccncc1` [Compound 1, 2-(pyridin-4-yl)ethyl (R)-(4-(1-phenylpyrrolidin-2-yl)thiazol-2-yl)carbamate] and `CN(CCc1ccncc1)C(=O)Nc1nc([C@H]2CCCN2c2ccccc2)cs1` [Compound 6, (R)-1-methyl-3-(4-(1-phenylpyrrolidin-2-yl)thiazol-2-yl)-1-(2-(pyridin-4-yl)ethyl)urea] cannot be ordered by pIC50: less than 4.52 for the first, less than 4.52 for the second.

`O=C(CCOc1ccncc1)Nc1nc([C@H]2CCCN2c2ccccc2)cs1` [Compound 2, (R)—N-(4-(1-phenylpyrrolidin-2-yl)thiazol-2-yl)-3-(pyridin-4-yloxy)propanamide] and `O=C(NCc1ccncc1)Nc1nc([C@H]2CCCN2c2ccccc2)cs1` [Compound 11, (R)-1-(4-(1-phenylpyrrolidin-2-yl)thiazol-2-yl)-3-(pyridin-4-ylmethyl)urea] cannot be ordered by pIC50: less than 4.52 for the first, less than 4.52 for the second.

Compared with `C[C@@H](OCc1ccncc1)C(=O)Nc1nc([C@H]2CCCN2c2ccccc2)cs1` [Compound 4, (R)—N-(4-((R)-1-phenylpyrrolidin-2-yl)thiazol-2-yl)-2-(pyridin-4-ylmethoxy)propanamide], `C[C@H](OCc1ccncc1)C(=O)Nc1nc([C@H]2CCCN2c2ccccc2)cs1` [Compound 5, (S)—N-(4-((R)-1-phenylpyrrolidin-2-yl)thiazol-2-yl)-2-(pyridin-4-ylmethoxy)propanamide] is higher in pIC50: 4.52 to 5.00 for the first, 5.00 to 5.30 for the second. The second is the more potent here.

Compared with `CC(CNc1ccncc1)C(=O)Nc1nc([C@H]2CCCN2c2ccccc2)cs1` (stereo partly drawn) [Compound 7, 2-methyl-N-(4-((R)-1-phenylpyrrolidin-2-yl)thiazol-2-yl)-3-(pyridin-4-ylamino)propanamide], `c1ccc(N2CCC[C@@H]2c2csc(Nc3ncccc3OCc3ccncc3)n2)cc1` [Compound 8, (R)-4-(1-phenylpyrrolidin-2-yl)-N-(3-(pyridin-4-ylmethoxy)pyridin-2-yl)thiazol-2-amine] is higher in pIC50: 4.52 to 5.00 for the first, greater than 5.30 for the second.

`O=C(c1ccccc1)c1ccc(Nc2nc([C@H]3CCCN3c3ccccc3)cs2)cc1` [Compound 13, (R)-phenyl(4-((4-(1-phenylpyrrolidin-2-yl)thiazol-2-yl)amino)phenyl)methanone] and `O=C(Nc1ccc(C(=O)c2ccccc2)cc1)Nc1nc([C@H]2CCCN2c2ccccc2)cs1` [Compound 23, (R)-1-(4-benzoylphenyl)-3-(4-(1-phenylpyrrolidin-2-yl)thiazol-2-yl)urea] cannot be ordered by pIC50: less than 4.52 for the first, less than 4.52 for the second.

`CC(C)OC(C)(C)c1csc(NC(=O)[C@@H](C)OCc2ccncc2)n1` [Compound 14, (R)—N-(4-(2-isopropoxypropan-2-yl)thiazol-2-yl)-2-(pyridin-4-ylmethoxy)propanamide] and `CC(C)OC(C)(C)c1csc(NC(=O)[C@H](C)OCc2ccncc2)n1` [Compound 15, (S)—N-(4-(2-isopropoxypropan-2-yl)thiazol-2-yl)-2-(pyridin-4-ylmethoxy)propanamide] cannot be ordered by pIC50: less than 4.52 for the first, less than 4.52 for the second.

`CC(C)OC(C)(C)c1csc(NC(=O)NCc2ccncc2)n1` [Compound 17, 1-(4-(2-isopropoxypropan-2-yl)thiazol-2-yl)-3-(pyridin-4-ylmethyl)urea] and `CC(C)OC(C)(C)c1csc(NC(=O)N(C)Cc2ccncc2)n1` [Compound 19, 3-(4-(2-isopropoxypropan-2-yl)thiazol-2-yl)-1-methyl-1-(pyridin-4-ylmethyl)urea] cannot be ordered by pIC50: less than 4.52 for the first, less than 4.52 for the second.

`CC(C)OC(C)(C)c1csc(NC(=O)Nc2ccccc2Oc2ccccc2)n1` [Compound 18, 1-(4-(2-isopropoxypropan-2-yl)thiazol-2-yl)-3-(2-phenoxyphenyl)urea] and `CC(C)OC(C)(C)c1csc(Nc2ccc(C(=O)c3ccccc3)cc2)n1` [Compound 22, (4-((4-(2-isopropoxypropan-2-yl)thiazol-2-yl)amino)phenyl)(phenyl)methanone] cannot be ordered by pIC50: less than 4.52 for the first, less than 4.52 for the second.

`CC(C)OC(C)(C)c1csc(NC(=O)N(C)CCc2ccncc2)n1` [Compound 20, 3-(4-(2-isopropoxypropan-2-yl)thiazol-2-yl)-1-methyl-1-(2-(pyridin-4-yl)ethyl)urea] and `CC(C)OC(C)(C)c1csc(NC(=O)OCCc2ccncc2)n1` [Compound 21, 2-(pyridin-4-yl)ethyl (4-(2-isopropoxypropan-2-yl)thiazol-2-yl)carbamate] cannot be ordered by pIC50: less than 4.52 for the first, less than 4.52 for the second.

`CC(C)OC(C)(C)c1csc(Nc2nccc3ccn(Cc4ccncc4)c23)n1` [Compound 25, 4-(2-isopropoxypropan-2-yl)-N-(1-(pyridin-4-ylmethyl)-1H-pyrrolo[2,3-c]pyridin-7-yl)thiazol-2-amine] and `CC(C)(C)c1csc(Nc2ncccc2CCc2ccncc2)n1` [Compound 39] fall in the same range of pIC50: 4.52 to 5.00 for the first, 4.52 to 5.00 for the second.

`O=C(Nc1nc(-c2ccccc2)ns1)c1cccn1Cc1ccncc1` [Compound 37] and `CC(C)(C)C1CNC(NC(=O)c2cccn2Cc2ccncc2)=N1` (centres unmarked) [Compound 43] fall in the same range of pIC50: 5.00 to 5.30 for the first, 5.00 to 5.30 for the second.

`Cc1ccc(Nc2nc(C3CCCN3Cc3cnc[nH]3)cs2)nc1` (centres unmarked) [Compound 45] and `Cc1ccc(Nc2nc(C3CCCN3C)cs2)nc1` (centres unmarked) [Compound 46] cannot be ordered by pIC50: less than 4.52 for the first, less than 4.52 for the second.

In the case of `CN1CCCC1c1csc(Nc2ncccn2)n1` (centres unmarked) [Compound 47], the pIC50 was less than 4.52.
